The text below walks through data of paper PMC10030467 (Nature Communications, 2023).

Substitutions are numbered along the chain they refer to.

Common to all, as to experiment: microscale thermophoresis
Assay type in all cases: binding
(In general: MST reads how a fluorescent partner responds to local heating, with and without ligand.)

Assay [1] concerns the target T1, TRIM72 (full-length; also MG53) (Homo sapiens, UniProt Q6ZMU5, R169A/R180A/R198A).
T1 construct: full-length residues 2-477; E. coli Rosetta (DE3), His-Sumo cut by Ulp1; GFP-labelled for MST, FLAG-tagged for PIP-Strips; dimer
T1 sequence (Q6ZMU5 2-477 R169A/R180A/R198A): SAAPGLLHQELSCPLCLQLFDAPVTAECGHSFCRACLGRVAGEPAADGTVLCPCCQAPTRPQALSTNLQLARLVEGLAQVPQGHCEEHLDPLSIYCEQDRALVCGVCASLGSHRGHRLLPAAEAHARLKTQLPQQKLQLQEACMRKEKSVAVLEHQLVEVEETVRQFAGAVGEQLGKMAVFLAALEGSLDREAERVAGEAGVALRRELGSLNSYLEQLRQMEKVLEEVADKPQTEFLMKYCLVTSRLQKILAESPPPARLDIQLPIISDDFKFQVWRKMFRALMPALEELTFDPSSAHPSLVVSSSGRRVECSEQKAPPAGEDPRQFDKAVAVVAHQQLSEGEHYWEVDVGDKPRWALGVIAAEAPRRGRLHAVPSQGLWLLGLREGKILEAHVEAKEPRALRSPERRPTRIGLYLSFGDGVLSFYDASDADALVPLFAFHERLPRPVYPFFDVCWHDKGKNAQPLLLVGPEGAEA

For assay [2], the target named is T2, coiled-coil domain alone (121-277) (Homo sapiens, UniProt Q6ZMU5).
T2 construct: gene TRIM72; coiled-coil domain, residues 121-277; E. coli; GFP-labelled for MST
T2 sequence (Q6ZMU5 121-277): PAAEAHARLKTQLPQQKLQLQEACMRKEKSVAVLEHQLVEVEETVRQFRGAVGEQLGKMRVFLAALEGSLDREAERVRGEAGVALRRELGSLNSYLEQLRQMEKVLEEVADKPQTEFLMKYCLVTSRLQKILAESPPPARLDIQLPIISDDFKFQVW
The following applies: 50 mM Tris pH 8.0, 80 mM NaCl, 0.05% Tween 20, 0.3 mM TCEP; room temperature; GFP-labelled protein.

Assay [3] concerns the target T3, CC-SPRY (Homo sapiens, UniProt Q6ZMU5).
T3 construct: gene TRIM72; coiled-coil plus SPRY; E. coli; GFP-labelled for MST; dimer
T3 sequence (Q6ZMU5 122-477): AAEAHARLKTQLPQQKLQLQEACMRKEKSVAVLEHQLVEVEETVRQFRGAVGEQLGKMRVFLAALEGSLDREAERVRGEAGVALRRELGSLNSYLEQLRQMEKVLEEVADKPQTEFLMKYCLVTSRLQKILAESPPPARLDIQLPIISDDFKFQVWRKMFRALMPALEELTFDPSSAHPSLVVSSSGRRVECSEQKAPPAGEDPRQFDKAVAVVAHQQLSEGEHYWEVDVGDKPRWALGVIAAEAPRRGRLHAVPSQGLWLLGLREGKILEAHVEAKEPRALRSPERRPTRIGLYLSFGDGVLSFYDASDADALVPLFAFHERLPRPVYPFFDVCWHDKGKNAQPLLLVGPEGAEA
The following applies: 50 mM Tris pH 8.0, 80 mM NaCl, 0.05% Tween 20, 0.3 mM TCEP; room temperature; GFP-labelled protein.

For assay [4], the target named is T4, TRIM72 (full-length; also MG53) (Homo sapiens, UniProt Q6ZMU5).
T4 construct: full-length residues 2-477; E. coli Rosetta (DE3), His-Sumo cut by Ulp1; GFP-labelled for MST, FLAG-tagged for PIP-Strips; dimer
T4 sequence (Q6ZMU5 2-477): T1 sequence (Q6ZMU5 2-477 R169A/R180A/R198A) with A168R, A179R, A197R
The following applies: 50 mM Tris pH 8.0, 80 mM NaCl, 0.05% Tween 20, 0.3 mM TCEP; room temperature; GFP-labelled protein.

Assay [5] deals with T5, SPRY domain (Homo sapiens, UniProt Q6ZMU5).
T5 construct: gene TRIM72; SPRY domain, residues 278-477; E. coli; GFP-labelled for MST; monomer
T5 sequence (Q6ZMU5 278-477): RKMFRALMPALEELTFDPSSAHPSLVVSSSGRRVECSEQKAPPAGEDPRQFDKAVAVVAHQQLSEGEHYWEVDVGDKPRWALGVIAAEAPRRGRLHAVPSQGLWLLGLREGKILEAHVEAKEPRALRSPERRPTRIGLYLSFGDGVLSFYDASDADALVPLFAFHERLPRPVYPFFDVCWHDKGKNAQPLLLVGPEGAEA
The following applies: 50 mM Tris pH 8.0, 80 mM NaCl, 0.05% Tween 20, 0.3 mM TCEP; room temperature; GFP-labelled protein.

As a reminder, the Kd is the free concentration of one partner at which half of the binding sites on the other are occupied at equilibrium, for simple one-to-one binding. Read a high Kd as a looser complex. Consider `N[C@@H](COP(=O)(O)O)C(=O)O` [phospho-L-serine], for which the Kd in assay [1] is approximately 38 µM; in assay [2], approximately 19.6 µM; in assay [3] it was approximately 10 µM; in assay [4] it was approximately 10 µM; in assay [5] it was approximately 4.7 µM.
